Measurements from PubChem BioAssay AID1963834 (Molecular Pharmacology Branch, DTP, NCI, 2024).

Test system: 873145-292-R-J1-PDC complex spheroid viability
Assay: Anticancer human tumor 873145-292-R-J1-PDC patient-derived renal clear cell carcinoma cell line growth inhibition [POLQ]
Settings: for IC50: curve of first compound; for viability, T/C: stronger effect = lower value; active = viability on the fitted dose curve at most 10% of control; inactive = the rest
Outline: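 PDC + HUVEC + MSC complex spheroids; POLQ inhibitors ± partner drugs; top conc. at/near clinical Cmax, else 10 microM (SN-38 1 microM), half-log dilutions; 37 degrees C, 5% CO2.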

[1] = second compound 0.0316 µM, first compound 0.0316 µM
[2] = second compound 0.0316 µM, first compound 0.1 µM
[3] = second compound 0.0316 µM, first compound 0.316 µM
[4] = second compound 0.0316 µM, first compound 1 µM
[5] = second compound 0.0316 µM, first compound 3.16 µM
[6] = second compound 0.0316 µM, first compound 10 µM
[7] = second compound 0.1 µM, first compound 0.0316 µM
[8] = second compound 0.1 µM, first compound 0.1 µM
[9] = second compound 0.1 µM, first compound 0.316 µM
[10] = second compound 0.1 µM, first compound 1 µM
[11] = second compound 0.1 µM, first compound 3.16 µM
[12] = second compound 0.1 µM, first compound 10 µM
[13] = second compound 0.316 µM, first compound 0.0316 µM
[14] = second compound 0.316 µM, first compound 0.1 µM
[15] = second compound 0.316 µM, first compound 0.316 µM
[16] = second compound 0.316 µM, first compound 1 µM
[17] = second compound 0.316 µM, first compound 3.16 µM
[18] = second compound 0.316 µM, first compound 10 µM
[19] = second compound 1 µM, first compound 0.0316 µM
[20] = second compound 1 µM, first compound 0.1 µM
[21] = second compound 1 µM, first compound 0.316 µM
[22] = second compound 1 µM, first compound 1 µM
[23] = second compound 1 µM, first compound 3.16 µM
[24] = second compound 1 µM, first compound 10 µM
[25] = second compound 3.16 µM, first compound 0.0316 µM
[26] = second compound 3.16 µM, first compound 0.1 µM
[27] = second compound 3.16 µM, first compound 0.316 µM
[28] = second compound 3.16 µM, first compound 1 µM
[29] = second compound 3.16 µM, first compound 3.16 µM
[30] = second compound 3.16 µM, first compound 10 µM
[31] = second compound 10 µM, first compound 0.0316 µM
[32] = second compound 10 µM, first compound 0.1 µM
[33] = second compound 10 µM, first compound 0.316 µM
[34] = second compound 10 µM, first compound 1 µM
[35] = second compound 10 µM, first compound 3.16 µM
[36] = second compound 10 µM, first compound 10 µM
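Also: spheroids exposed to compounds for 7 days before viability readout.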
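For viability, T/C in this document: luminescence signal used as surrogate for viable cell content; 100% = DMSO vehicle control viability.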

C=CC(=O)N1CCN(c2nc(=O)n(-c3c(C)ccnc3C(C)C)c3nc(-c4c(O)cccc4F)c(F)cc23)C(C)C1 (stereo unspecified) + COC1C(OC(N)=O)C(O)C(Oc2ccc3c(O)c(NC(=O)c4ccc(O)c(CC=C(C)C)c4)c(=O)oc3c2C)OC1(C)C
> 10 µM: IC50 (second compound 0.0316 µM) | IC50 (second compound 0.1 µM) | IC50 (second compound 0.316 µM) | IC50 (second compound 1 µM) | IC50 (second compound 3.16 µM) | IC50 (second compound 10 µM)
inactive: viability, T/C [1] 102% | viability, T/C [2] 97.9% | viability, T/C [3] 110% | viability, T/C [4] 114% | viability, T/C [5] 119% | viability, T/C [6] 130% | viability, T/C [7] 98.7% | viability, T/C [8] 99.6% | viability, T/C [9] 91.5% | viability, T/C [10] 111% | viability, T/C [11] 114% | viability, T/C [12] 114% | viability, T/C [13] 102% | viability, T/C [14] 97% | viability, T/C [15] 118% | viability, T/C [16] 113% | viability, T/C [17] 138% | viability, T/C [18] 119% | viability, T/C [19] 94.5% | viability, T/C [20] 94% | viability, T/C [21] 105% | viability, T/C [22] 104% | viability, T/C [23] 120% | viability, T/C [24] 126% | viability, T/C [25] 92.4% | viability, T/C [26] 92.7% | viability, T/C [27] 105% | viability, T/C [28] 113% | viability, T/C [29] 126% | viability, T/C [30] 121% | viability, T/C [31] 99.7% | viability, T/C [32] 109% | viability, T/C [33] 113% | viability, T/C [34] 116% | viability, T/C [35] 111% | viability, T/C [36] 125%

CC(C)n1c(=O)n(C)c2cnc3cc(F)c(-c4ccc(OCCCN5CCCCC5)nc4)cc3c21 + COC1C(OC(N)=O)C(O)C(Oc2ccc3c(O)c(NC(=O)c4ccc(O)c(CC=C(C)C)c4)c(=O)oc3c2C)OC1(C)C
inactive: viability, T/C [1] 96% | viability, T/C [2] 93% | viability, T/C [3] 99.2% | viability, T/C [4] 105% | viability, T/C [5] 92.8% | viability, T/C [6] 82.5% | viability, T/C [7] 94% | viability, T/C [8] 96.7% | viability, T/C [9] 92.9% | viability, T/C [10] 90% | viability, T/C [11] 100% | viability, T/C [12] 90.8% | viability, T/C [13] 95.5% | viability, T/C [14] 98.9% | viability, T/C [15] 109% | viability, T/C [16] 87.3% | viability, T/C [17] 104% | viability, T/C [18] 78.9% | viability, T/C [19] 105% | viability, T/C [20] 106% | viability, T/C [21] 92.9% | viability, T/C [22] 94.1% | viability, T/C [23] 90.8% | viability, T/C [24] 82.7% | viability, T/C [25] 96% | viability, T/C [26] 104% | viability, T/C [27] 98.7% | viability, T/C [28] 91.7% | viability, T/C [29] 90.5% | viability, T/C [30] 86.9% | viability, T/C [31] 96.2% | viability, T/C [32] 91.1% | viability, T/C [33] 104% | viability, T/C [34] 90.5% | viability, T/C [35] 107% | viability, T/C [36] 88.7%
> 10 µM: IC50 (second compound 0.0316 µM) | IC50 (second compound 0.1 µM) | IC50 (second compound 0.316 µM) | IC50 (second compound 1 µM) | IC50 (second compound 3.16 µM) | IC50 (second compound 10 µM)

CC1COCCN1c1cc(-c2ccnn2C)c2ccnc(-c3ccn[nH]3)c2n1 (stereo unspecified) + COC1C(OC(N)=O)C(O)C(Oc2ccc3c(O)c(NC(=O)c4ccc(O)c(CC=C(C)C)c4)c(=O)oc3c2C)OC1(C)C
0.948 µM: IC50 (second compound 10 µM)
1.21 µM: IC50 (second compound 0.316 µM)
0.952 µM: IC50 (second compound 3.16 µM)
1.52 µM: IC50 (second compound 0.0316 µM)
0.986 µM: IC50 (second compound 0.1 µM)
0.864 µM: IC50 (second compound 1 µM)
inactive: viability, T/C [1] 86.7% | viability, T/C [2] 80.9% | viability, T/C [3] 68.6% | viability, T/C [4] 54.8% | viability, T/C [5] 42.2% | viability, T/C [6] 38.5% | viability, T/C [7] 94.1% | viability, T/C [8] 83.4% | viability, T/C [9] 70% | viability, T/C [10] 47.1% | viability, T/C [11] 43.8% | viability, T/C [12] 47.3% | viability, T/C [13] 94.2% | viability, T/C [14] 76.3% | viability, T/C [15] 63.7% | viability, T/C [16] 51.6% | viability, T/C [17] 41.2% | viability, T/C [18] 45.1% | viability, T/C [19] 92.5% | viability, T/C [20] 80.9% | viability, T/C [21] 63.4% | viability, T/C [22] 47.6% | viability, T/C [23] 42.1% | viability, T/C [24] 42.3% | viability, T/C [25] 85.1% | viability, T/C [26] 79.8% | viability, T/C [27] 66.8% | viability, T/C [28] 49.9% | viability, T/C [29] 38.3% | viability, T/C [30] 38.1% | viability, T/C [31] 93% | viability, T/C [32] 82.8% | viability, T/C [33] 67.2% | viability, T/C [34] 47.6% | viability, T/C [35] 43.7% | viability, T/C [36] 41.8%
